Test in all cases: Large panel kinase profiling
Holding throughout (type): biochemical
Holding throughout (settings): 1 μM test article, 1 mM ATP

One experiment has as its target T1, SRMS (Homo sapiens, UniProt Q9H3Y6).
T1 construct: AssayQuant Technologies, Inc. (contract assay)
Put shortly:
(§1)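 Kinase activity was followed with the PhosphoSens CSox-Sensor platform, testing compound at 1 μM in the presence of 1 mM ATP. Reactions ran at 30° C. and fluorescence (Ex 360 nm/Em 485 nm) was read kinetically every 1 min.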

A further experiment has as its target T2, NEK2 (Homo sapiens, UniProt P51955).
T2 construct: AssayQuant Technologies, Inc. (assay service)
T2 sequence (P51955 1-445): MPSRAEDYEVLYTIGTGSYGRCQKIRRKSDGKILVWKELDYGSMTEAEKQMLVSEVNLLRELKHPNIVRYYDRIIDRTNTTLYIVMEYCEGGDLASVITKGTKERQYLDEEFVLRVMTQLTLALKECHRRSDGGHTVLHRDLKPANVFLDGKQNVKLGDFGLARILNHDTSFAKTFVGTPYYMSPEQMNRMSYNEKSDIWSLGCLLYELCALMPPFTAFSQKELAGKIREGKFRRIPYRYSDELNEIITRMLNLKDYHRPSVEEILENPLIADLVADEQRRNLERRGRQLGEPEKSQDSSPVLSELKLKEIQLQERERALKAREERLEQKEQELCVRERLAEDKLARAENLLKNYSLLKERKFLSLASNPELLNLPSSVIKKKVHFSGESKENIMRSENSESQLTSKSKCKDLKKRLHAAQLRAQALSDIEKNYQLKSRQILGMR
In short, it runs like this: as §1

In another experiment the target is T3, TBK1 (Homo sapiens, UniProt Q9UHD2).
T3 construct: AssayQuant Technologies, Inc. (contract laboratory that ran the panel)
T3 sequence (Q9UHD2 1-729): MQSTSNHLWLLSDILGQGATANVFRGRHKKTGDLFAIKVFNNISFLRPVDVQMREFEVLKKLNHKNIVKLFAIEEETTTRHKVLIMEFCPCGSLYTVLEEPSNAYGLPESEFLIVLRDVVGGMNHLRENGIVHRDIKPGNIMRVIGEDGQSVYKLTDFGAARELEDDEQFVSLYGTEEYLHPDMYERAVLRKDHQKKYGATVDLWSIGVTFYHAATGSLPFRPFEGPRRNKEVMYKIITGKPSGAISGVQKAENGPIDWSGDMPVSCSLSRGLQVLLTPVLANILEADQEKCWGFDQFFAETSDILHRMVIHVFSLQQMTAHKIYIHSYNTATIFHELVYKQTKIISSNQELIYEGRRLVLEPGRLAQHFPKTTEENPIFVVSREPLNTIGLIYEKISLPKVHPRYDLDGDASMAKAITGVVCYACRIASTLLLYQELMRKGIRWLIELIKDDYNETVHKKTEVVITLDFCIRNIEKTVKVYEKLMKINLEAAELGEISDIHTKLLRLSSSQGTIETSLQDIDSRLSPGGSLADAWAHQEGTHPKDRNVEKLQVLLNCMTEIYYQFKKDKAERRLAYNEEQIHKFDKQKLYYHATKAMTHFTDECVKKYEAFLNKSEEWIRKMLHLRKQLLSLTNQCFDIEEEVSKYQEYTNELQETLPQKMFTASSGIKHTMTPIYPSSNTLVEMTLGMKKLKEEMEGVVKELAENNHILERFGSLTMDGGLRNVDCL
Put shortly:
as §1

For the next experiment, the target named is T4, MELK (Homo sapiens, UniProt Q14680).
T4 construct: AssayQuant Technologies, Inc. (assay service)
T4 sequence (Q14680 whole entry, species assumed): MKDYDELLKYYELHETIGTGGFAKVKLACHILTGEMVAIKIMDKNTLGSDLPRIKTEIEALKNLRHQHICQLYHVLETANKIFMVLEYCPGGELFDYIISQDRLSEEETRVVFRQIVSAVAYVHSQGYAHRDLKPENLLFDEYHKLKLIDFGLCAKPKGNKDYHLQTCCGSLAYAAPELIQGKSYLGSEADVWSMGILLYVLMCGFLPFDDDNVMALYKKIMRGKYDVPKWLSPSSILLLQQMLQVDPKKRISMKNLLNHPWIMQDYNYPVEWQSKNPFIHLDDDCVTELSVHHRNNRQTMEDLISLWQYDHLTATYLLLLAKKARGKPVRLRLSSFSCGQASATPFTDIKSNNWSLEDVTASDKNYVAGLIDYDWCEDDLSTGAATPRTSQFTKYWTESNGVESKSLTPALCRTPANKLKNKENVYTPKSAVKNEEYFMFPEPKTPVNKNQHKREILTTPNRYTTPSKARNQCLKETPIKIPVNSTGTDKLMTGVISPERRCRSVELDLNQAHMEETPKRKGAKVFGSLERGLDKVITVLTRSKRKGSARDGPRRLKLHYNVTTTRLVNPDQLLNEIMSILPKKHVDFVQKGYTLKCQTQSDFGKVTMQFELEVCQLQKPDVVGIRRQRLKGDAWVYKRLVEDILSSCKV
Put shortly:
as §1

The next experiment has as its target PRKCA/PKCA (Homo sapiens, UniProt P17252). In short, it runs like this: as §1
In another experiment the target is BLK (Homo sapiens, UniProt P51451). In short, it runs like this:
as §1

Another experiment concerns the target NTRK3/TRKC (Homo sapiens, UniProt Q16288). In short, it runs like this:
as §1

In another experiment the target is T5, MARK4 (Homo sapiens, UniProt Q96L34).
T5 construct: AssayQuant Technologies, Inc. (assay service)
T5 sequence (Q96L34 1-752): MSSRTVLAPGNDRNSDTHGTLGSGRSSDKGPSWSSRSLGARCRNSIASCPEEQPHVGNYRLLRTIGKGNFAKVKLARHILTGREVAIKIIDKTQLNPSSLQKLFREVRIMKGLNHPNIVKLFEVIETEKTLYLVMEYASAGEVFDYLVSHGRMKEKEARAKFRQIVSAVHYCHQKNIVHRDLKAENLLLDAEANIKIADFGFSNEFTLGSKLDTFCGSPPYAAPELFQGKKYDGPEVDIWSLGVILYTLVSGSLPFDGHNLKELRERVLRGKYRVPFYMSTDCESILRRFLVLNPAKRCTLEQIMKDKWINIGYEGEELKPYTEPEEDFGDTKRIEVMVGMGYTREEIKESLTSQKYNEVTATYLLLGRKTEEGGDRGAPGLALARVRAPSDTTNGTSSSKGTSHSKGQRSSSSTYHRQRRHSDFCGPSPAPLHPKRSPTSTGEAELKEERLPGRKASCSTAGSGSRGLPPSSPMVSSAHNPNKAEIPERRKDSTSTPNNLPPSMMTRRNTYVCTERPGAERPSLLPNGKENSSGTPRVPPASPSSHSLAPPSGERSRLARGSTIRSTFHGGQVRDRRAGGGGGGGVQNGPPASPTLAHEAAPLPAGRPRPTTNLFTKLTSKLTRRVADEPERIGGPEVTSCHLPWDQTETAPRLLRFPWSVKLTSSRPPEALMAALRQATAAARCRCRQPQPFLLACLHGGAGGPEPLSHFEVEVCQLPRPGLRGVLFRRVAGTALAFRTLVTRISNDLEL
Put shortly:
as §1

For a further experiment, the target named is T6, TNIK (Homo sapiens, UniProt Q9UKE5).
T6 construct: AssayQuant Technologies, Inc. (contract laboratory that ran the panel)
T6 sequence (Q9UKE5 whole entry, species assumed): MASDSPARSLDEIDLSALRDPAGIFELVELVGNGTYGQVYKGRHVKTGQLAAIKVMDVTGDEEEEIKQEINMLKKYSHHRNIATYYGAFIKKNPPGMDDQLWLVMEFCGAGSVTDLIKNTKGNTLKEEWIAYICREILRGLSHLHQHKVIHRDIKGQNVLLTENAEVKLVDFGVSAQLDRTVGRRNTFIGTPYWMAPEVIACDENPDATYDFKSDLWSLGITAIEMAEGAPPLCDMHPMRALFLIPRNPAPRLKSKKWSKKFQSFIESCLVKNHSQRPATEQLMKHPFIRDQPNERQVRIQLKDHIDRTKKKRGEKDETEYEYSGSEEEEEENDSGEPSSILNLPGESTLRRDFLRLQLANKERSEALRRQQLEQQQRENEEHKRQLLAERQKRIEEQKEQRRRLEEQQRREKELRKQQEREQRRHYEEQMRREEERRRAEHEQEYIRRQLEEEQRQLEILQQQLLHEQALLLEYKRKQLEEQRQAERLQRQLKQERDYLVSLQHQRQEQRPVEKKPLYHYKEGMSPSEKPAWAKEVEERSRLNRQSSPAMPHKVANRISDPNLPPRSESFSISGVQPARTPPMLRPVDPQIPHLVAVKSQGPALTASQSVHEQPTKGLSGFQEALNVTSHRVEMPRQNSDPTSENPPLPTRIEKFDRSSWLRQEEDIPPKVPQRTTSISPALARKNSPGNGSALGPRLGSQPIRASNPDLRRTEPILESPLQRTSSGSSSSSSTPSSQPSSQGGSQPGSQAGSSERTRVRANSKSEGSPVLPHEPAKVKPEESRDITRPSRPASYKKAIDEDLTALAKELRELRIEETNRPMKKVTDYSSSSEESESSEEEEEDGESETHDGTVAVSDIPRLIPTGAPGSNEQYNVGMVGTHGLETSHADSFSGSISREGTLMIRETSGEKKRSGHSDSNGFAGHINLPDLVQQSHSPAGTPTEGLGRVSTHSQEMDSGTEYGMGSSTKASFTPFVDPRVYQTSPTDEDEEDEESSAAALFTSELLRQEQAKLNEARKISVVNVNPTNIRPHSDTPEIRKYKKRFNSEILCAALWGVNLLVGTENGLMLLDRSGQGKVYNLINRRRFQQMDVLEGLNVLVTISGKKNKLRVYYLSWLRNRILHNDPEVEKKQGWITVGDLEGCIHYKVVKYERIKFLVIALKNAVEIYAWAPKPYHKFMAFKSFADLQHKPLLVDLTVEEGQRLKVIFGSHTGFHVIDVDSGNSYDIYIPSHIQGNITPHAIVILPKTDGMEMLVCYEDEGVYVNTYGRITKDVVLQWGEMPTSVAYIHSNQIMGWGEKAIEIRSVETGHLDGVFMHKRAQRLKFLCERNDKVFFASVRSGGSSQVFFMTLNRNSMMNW
In short, it runs like this: as §1

A further experiment addresses MAP3K11 (Homo sapiens, UniProt Q16584). In short, it runs like this:
as §1

In the next experiment the target is PKN3 (Homo sapiens, UniProt Q6P5Z2). Put shortly: as §1

Each structure is given as a SMILES string.

The inhibition is the drop in the measured response relative to a control, in per cent.

Chain of MAP3K11 (Q16584 whole entry, species assumed): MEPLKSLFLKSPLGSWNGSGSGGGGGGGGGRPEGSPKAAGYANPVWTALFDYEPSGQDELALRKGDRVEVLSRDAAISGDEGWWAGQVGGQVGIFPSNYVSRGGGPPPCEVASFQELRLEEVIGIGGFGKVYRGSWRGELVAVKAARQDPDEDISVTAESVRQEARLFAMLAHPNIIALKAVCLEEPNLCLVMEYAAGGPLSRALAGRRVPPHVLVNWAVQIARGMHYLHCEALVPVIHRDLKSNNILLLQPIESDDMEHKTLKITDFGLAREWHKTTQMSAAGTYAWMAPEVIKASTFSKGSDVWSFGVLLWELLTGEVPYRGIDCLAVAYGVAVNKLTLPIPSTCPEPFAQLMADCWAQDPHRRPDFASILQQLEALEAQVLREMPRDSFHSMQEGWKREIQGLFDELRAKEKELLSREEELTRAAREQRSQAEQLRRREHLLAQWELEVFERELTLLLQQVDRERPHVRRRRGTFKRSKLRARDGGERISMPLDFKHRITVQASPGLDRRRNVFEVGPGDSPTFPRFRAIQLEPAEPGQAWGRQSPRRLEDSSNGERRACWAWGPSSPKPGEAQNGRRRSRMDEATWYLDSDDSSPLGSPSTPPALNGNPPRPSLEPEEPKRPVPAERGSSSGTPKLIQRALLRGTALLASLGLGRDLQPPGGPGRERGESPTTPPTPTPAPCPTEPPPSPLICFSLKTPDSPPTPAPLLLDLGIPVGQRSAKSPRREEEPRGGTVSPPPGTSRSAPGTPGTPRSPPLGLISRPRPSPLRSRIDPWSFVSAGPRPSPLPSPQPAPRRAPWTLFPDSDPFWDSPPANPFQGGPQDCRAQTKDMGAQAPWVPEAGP
Chain of BLK (P51451 whole entry): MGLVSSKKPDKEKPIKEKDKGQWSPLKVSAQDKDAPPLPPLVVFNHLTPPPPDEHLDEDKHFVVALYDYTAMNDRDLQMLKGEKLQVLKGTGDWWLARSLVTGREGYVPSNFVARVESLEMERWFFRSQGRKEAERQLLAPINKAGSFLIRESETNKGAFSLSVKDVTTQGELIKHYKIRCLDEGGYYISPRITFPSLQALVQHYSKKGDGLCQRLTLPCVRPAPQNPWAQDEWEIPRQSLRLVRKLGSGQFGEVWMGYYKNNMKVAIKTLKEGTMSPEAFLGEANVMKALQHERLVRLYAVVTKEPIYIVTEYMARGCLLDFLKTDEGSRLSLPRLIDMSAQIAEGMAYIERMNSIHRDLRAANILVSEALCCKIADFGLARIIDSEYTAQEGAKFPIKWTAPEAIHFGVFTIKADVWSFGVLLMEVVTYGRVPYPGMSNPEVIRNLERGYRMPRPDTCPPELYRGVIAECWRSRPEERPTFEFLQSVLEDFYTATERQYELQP
Chain of NTRK3/TRKC (Q16288 32-839): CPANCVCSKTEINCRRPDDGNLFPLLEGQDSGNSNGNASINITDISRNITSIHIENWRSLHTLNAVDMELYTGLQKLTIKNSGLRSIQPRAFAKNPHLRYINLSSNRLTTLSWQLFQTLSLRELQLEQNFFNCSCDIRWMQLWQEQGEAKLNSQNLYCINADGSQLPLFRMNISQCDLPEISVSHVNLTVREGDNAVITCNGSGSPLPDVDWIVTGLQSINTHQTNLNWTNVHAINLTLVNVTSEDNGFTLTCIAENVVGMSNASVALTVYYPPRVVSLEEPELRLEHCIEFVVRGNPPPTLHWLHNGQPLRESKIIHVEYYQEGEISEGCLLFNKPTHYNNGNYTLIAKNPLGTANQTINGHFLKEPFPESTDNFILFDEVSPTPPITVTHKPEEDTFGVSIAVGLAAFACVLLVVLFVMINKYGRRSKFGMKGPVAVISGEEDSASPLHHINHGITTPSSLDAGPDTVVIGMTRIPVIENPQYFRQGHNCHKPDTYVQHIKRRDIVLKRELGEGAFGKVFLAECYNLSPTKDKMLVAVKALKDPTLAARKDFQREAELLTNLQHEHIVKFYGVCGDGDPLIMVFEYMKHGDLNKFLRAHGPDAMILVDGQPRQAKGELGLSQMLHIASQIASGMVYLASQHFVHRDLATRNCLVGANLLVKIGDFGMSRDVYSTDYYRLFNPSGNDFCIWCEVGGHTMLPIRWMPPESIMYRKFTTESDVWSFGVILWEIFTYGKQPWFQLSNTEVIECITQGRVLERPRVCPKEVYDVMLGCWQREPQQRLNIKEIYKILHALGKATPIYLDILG

Turning to `C=CC(=O)N1CCCC(c2c(F)cc(C(N)=O)c3[nH]c4c(c23)CCCCC4)C1` (single isomer, unassigned) [Compound 5-6], the inhibition at 1 µM against SRMS is -10%; at NEK2, -26.5%; at TBK1, 10.9%; at MELK, -27.6%; on PRKCA/PKCA, 2.3%; on BLK it was 30.3%. Also, the inhibition at 1 µM against NTRK3/TRKC is -25.7%; against MARK4, 8.1%; against TNIK it was 9.9%; against MAP3K11 it was 16%; at PKN3, 5.7%.
On to `C=CC(=O)N1CCC[C@@H](c2c(F)cc(C(N)=O)c3[nH]c4c(c23)CC2(CC4)CC2)C1` [Compound 6-2, (S)-5-(1-acryloylpiperidin-3-yl)-6-fluoro-1,2,4,9-tetrahydrospiro[carbazole-3,1′-cyclopropane]-8-carboxamide], for which the inhibition at 1 µM on SRMS is -35.5%; at NEK2, -1.4%; at TBK1, -34.6%; against MELK, -14.5%; at PRKCA/PKCA, 14.7%; against BLK, 65.7%. The inhibition at 1 µM against NTRK3/TRKC was 5.7%; on MARK4 it was -10.2%; against TNIK, -29.3%; against MAP3K11 it was 17.6%; on PKN3 it was -9.4%.
Consider `C=CC(=O)N1CCC[C@@H](c2c(F)cc(C(N)=O)c3[nH]c4c(c23)CCC4)C1` [Compound 10-2, (S)-8-(1-acryloylpiperidin-3-yl)-7-fluoro-1,2,3,4-tetrahydrocyclo-penta[b]indole-5-carboxamide], for which the inhibition at 1 µM against SRMS is -32%; on NEK2, 10.6%; against TBK1 it was -31.3%; against MELK, 11.1%; against PRKCA/PKCA, -3.5%; on BLK, -2.3%. Further, the inhibition at 1 µM against NTRK3/TRKC was 2.9%; on MARK4, 1.7%; at TNIK, -22.9%; on MAP3K11, -3.2%; against PKN3, 3.5%.

Source of the values: patent publication US20220009920A1 (GB005, Inc., priority 2020, published 2022).
